# From ChEMBL document CHEMBL5725298 (2017)
# Experiment: Anti-HIV Cytoprotection Assay: The in vitro antiviral activity profile for CMX157 was evaluated for cell-type effects and HIV strain effects.
row,Compound,EC50
1,C[C@H](Cn1cnc2c(N)ncnc21)OCP(=O)(O)OCCCOCC(=O)O,> 10 µM
2,C[C@H](Cn1cnc2c(N)ncnc21)OCP(=O)(O)OCCCOCCCC(=O)O,> 10 µM
3,C[C@H](Cn1cnc2c(N)ncnc21)OCP(=O)(O)OCCCO,> 10 µM
4,CCCCCCCCCCCCCCCCOCCCOP(=O)(O)CO[C@H](C)Cn1cnc2c(N)ncnc21 [TENOFOVIR EXALIDEX],< 0.03 µM
